Assays:
TNF-α protein = TNF-α protein level (ELISA) in LPS-challenged RAW 264.7 cells; format: cell-based, mouse; design: key: NS=not significant; a “+” sign=anti-inflammatory or increased cell numbers; a “−” sign=cell toxicity or pro-inflammatory; conditions: LPS 30 or 60 ng/mL, 24 h
How it was run: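 RAW 264.7 cells pretreated 1 h with compound in DMSO vehicle, then challenged with LPS (30 or 60 ng/mL) for 24 h at 37° C. Conditioned-media nitrite by Griess (520 nm, sodium nitrite standard curve, 1.5 μM cutoff) in μM; mouse TNF-α by ELISA as pg/ml or % change from control.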

RAW 264.7 cells = test: Cell viability (CellTiter 96 AQueous One) of LPS-challenged RAW 264.7 cells; format: cell-based, mouse; design: key: NS=not significant; a “+” sign=anti-inflammatory or increased cell numbers; a “−” sign=cell toxicity or pro-inflammatory
How it was run: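 RAW 264.7 murine macrophages pretreated 1 h with compound or DMSO vehicle, then challenged with LPS (serotype 055:B5) at 30 or 60 ng/mL final for 24 h. After media replacement, viability measured by tetrazolium (MTS) conversion, absorbance at 490 nm, reported as O.D.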

[1] = tested on: nitrite levels in the culture media; test: Nitrite level (Griess Reagent System) in LPS-challenged RAW 264.7 cells; format: cell-based, mouse; design: key: NS=not significant; a “+” sign=anti-inflammatory or increased cell numbers; a “−” sign=cell toxicity or pro-inflammatory; conditions: LPS 30 or 60 ng/mL, 24 h
Protocol: Nitrite levels in the culture media were measured by use of the Griess Reagent System (Promega, Madison, Wis.), following the manufacturer's protocol. The O.D. of unknown samples was read at 520 nm λ, compared to a sodium nitrite standard curve (1.5 μM to 100 μM) and nitrite measured media concentrations expressed as μM units. As the lowest nitrite concentration on the Griess Reagent System standard curve was 1.5 μM, this was chosen as the effective cutoff for defining measurable nitrite concentrations. TNF-α protein levels were measured by use of an ELISA specific for mouse TNF-α protein (BioLegend, San Diego, Calif.) and are expressed as a % change from their appropriate control or as pg/ml.
RAW 264.7 cells obtained from ATCC (Manassas, Va., USA) were grown in DMEM media supplemented with 10% FCS, penicillin 100 μg/ml and streptomycin 100 μg/ml, and maintained at 37° C. and 5% CO2. Cells were seeded in 24 well plates and, 24 hours later, were utilized in studies. One hour prior to the initiation of any study, the seeding media was replaced with fresh media (1 mL), and the cells were allowed to equilibrate at 37° C. and 5% CO2.
RAW 264.7 cells were challenged with LPS (Sigma, St Louis, Mo.: serotype 055:B5) from at a final concentration of 30 or 60 ng/mL. This concentration of LPS in RAW 264.7 cells induces a sub-maximal rise in both TNF-alpha and nitrite levels without a loss in cellular viability. This sub-maximal rise is useful for assessing whether the addition of an experimental drug can either lower or further raise levels of TNF-α and nitrite. Twenty four hours following the addition of LPS, conditioned media was harvested and analyzed for quantification of secreted TNF-α protein and nitrite levels. Fresh media was replaced into the wells and cell viability was then assessed.
Thalidomide and analogs were prepared in tissue culture grade DMSO (Sigma). RAW 264.7 cells were pretreated with thalidomide, analogues or vehicle one hour prior to a challenge with LPS. The effects of various concentrations of thalidomide analogues were assessed. All compounds were synthesized to a chemical purity of >99.5%, as assessed by chemical characterization by a combination of 1H NMR, 13C NMR and GC/MS analyses (Bruker AC-300 spectrometer, together with elemental analyses (Atlantic Microlab, Inc., Norcross, Ga.).

[2] = tested on: fli1:EGFP zebrafish embryos (intersegmental vessel growth); test: fli1:EGFP zebrafish embryo angiogenesis assay; format: in vivo; design: fli1:EGFP angiogenesis n (survived/tested): concentration or dose not given beside the values; conditions: for minimal effective concentration: Danio rerio, lowest concentration producing an effect, compounds not producing an effect shown at the highest evaluated concentration; for fli1:EGFP angiogenesis n (survived/tested): embryos alive after 24 hours of exposure
Description: (§1) Zebrafish embryology: The use of zebrafish embryo (Danio rerio) bioassays as a preclinical model in the classification of novel compounds has increased in recent years due to several factors including; low cost, ease of maintenance, speed of embryonic development, transparency of the embryos and genetic conservation between zebrafish and humans (Howe et al., Nature 2013; 496:498; Therapontos et al., PNAS 2009, 106:8573; Mahony et al., PNAS 2013, 110:12703; Beedie et al., Oncotarget 2016, 7(22):33237; Beedie et al., Mol. Cancer Ther. 2015, 14(10):2228). Two established zebrafish reporter lines were used—the fli1:EGFP line, where the fli1 promoter drives expression of enhanced green fluorescent protein within the developing vasculature (Lawson et al., 2002), and the Tg(mpo::EGFP) line (also known as mpo:GFP), which expresses green fluorescent protein via the neutrophil specific myeloperoxidase promoter (Renshaw et al., Blood 2006, 108:3976). The use of these zebrafish transgenic reporter lines allows for the identification of potential anti-angiogenic and anti-inflammatory compounds respectively, and both have been used previously to successfully classify the action of thalidomide analogs (Therapontos et al., 2009; Mahony et al., 2013; Beedie et al., Oncotarget 2016, 7(22):33237; Beedie et al., Mol. Cancer Ther. 2015, 14(10):2228). Zebrafish embryos were treated with analogs as previously described (Mahony et al., 2013). Briefly, fli1:EGFP embryos were collected and embryos were allowed to develop for 24 hours. Embryos were dechorionated manually and exposed to test compounds or vehicle control for a further 24 hours, imaged and analyzed for intersegmental vessel (ISV) growth. At 24 hours post fertilisation (hpf) the ISVs were ideal to study to visualize and analyze the actions of compounds on angiogenesis. At this time point ISVs were rapidly forming beneath the developing head, over the body and had yet to form in the tail (Lawson and Weinstein, Developmental Biology 2002, 248:307; Therapontos and Vargesson, Developmental Dynamics 2010, 239:2761). Additionally, these sprouts would go on to form the bilateral dorsal longitudinal anastomotic vessels. By treating before this fusion and formation occurs, the effect of each compound on the individual vessels as well as overall patterning structural integrity (Isogai et al., Development 2003, 130:5281) could be determined. Tg(mpo::EGFP) were tail fin clipped as previously detailed (Renshaw et al., 2006; Mahony et al., 2013; Beedie et al., Oncotarget 2016, 7(22):33237; Beedie et al., Mol. Cancer Ther. 2015, 14(10):2228) and incubated with test compounds or vehicle control at 72 hours post fertilization. Fish were imaged at 24 hours and the number of migratory neutrophils present at the wound site were counted. Compounds inducing an at least 50% reduction of neutrophils to the wound site were considered to have anti-inflammatory properties in this system. All larvae were assessed for viability and morphological integrity.
To determine if the thalidomide analogs had any effect on angiogenesis, fli1:EGFP embryos (Lawson and Weinstein, Developmental Biology 2002, 248:307-318) were exposed to either vehicle or a compound of interest, over a range of concentrations and over a range of time points starting at 24 hpf. Images were obtained at three time points over 24 hours after exposure to the compounds. The best concentration and time point were selected. CPS49, a compound that is chemically and structurally similar to thalidomide breakdown products, and is tetrafluorinated (which adds stability and bioactivity to the compound) and that causes severe limb defects in chicken embryos, was used as a positive control. The embryos were imaged at 48 hpf (FIGS. 3A3L) and analyzed for both vessel formation and the extent of growth of the vasculature. […]

[3] = tested on: mpo:GFP zebrafish embryos (neutrophil migration to the wound site); test: mpo:GFP zebrafish fin-clip neutrophil migration (inflammation) assay; format: in vivo; design: mpo:GFP inflammation n (survived/tested): concentration or dose not given beside the values; conditions: for minimal effective concentration: Danio rerio, Neutrophil, lowest concentration producing an effect, compounds not producing an effect shown at the highest evaluated concentration; for mpo:GFP inflammation n (survived/tested): embryos survived/tested at the concentration given
Description: as §1
To assess the immunomodulatory effects of the thalidomide analogs, the mpo:gfp transgenic zebrafish line (Renshaw et al., Blood 2006, 108:3976-3978) was utilized because it is an accepted model of inflammation, and can be used to test the effect of anti-inflammatory agents. These embryos express GFP-tagged myeloperoxidase, where green fluorescence marks the neutrophil cells involved in the inflammatory response process, for example following injury, from 72 hours post fertilization (Renshaw et al., 2006; Mahony et al., 2013; Beedie et al., Oncotarget 2016, 7(22):33237). At 72 hpf the dorsal third of the tail fin was removed and the embryos were immersed in the desired compound or vehicle (FIGS. 5A-5C). The embryos were examined for the effect on the inflammatory response quantified as an induction and migration of neutrophils to the wound site 24 hours later.

| Structure (SMILES) | TNF-α (TNF-α protein; 30 μM) | TNF-α (TNF-α protein; 60 μM) | TNF-α (TNF-α protein; 100 μM) | Viability (RAW 264.7 cells; 30 μM) | Viability (RAW 264.7 cells; 60 μM) | Viability (RAW 264.7 cells; 100 μM) | Nitrite ([1]; 30 μM) | Nitrite ([1]; 60 μM) | Nitrite ([1]; 100 μM) | minimal effective concentration [2] | fli1:EGFP angiogenesis n (survived/tested) [2] | minimal effective concentration [3] | mpo:GFP inflammation n (survived/tested) [3] | TNF-α (TNF-α protein; 1 μM) | TNF-α (TNF-α protein; 10 μM) | Viability (RAW 264.7 cells; 1 μM) | Viability (RAW 264.7 cells; 10 μM) | Nitrite ([1]; 1 μM) | Nitrite ([1]; 10 μM) | anti-inflammatory activity (inhibition of neutrophil migration) ([3]; in words) |
| --- | --- | --- | --- | --- | --- | --- | --- | --- | --- | --- | --- | --- | --- | --- | --- | --- | --- | --- | --- | --- |
| O=C1c2cccc([N+](=O)[O-])c2C(=O)N1C1CCC(=S)NC1=S (stereo not drawn) [Compound 9, 2-(2,6-Dithioxo-3-piperidinyl)-4-nitro-1H-isoindole-1,3(2H)-dione] | NS | NS | NS | NS | NS | + | + | + | + | 10 µg/mL | 14/21 | 10 µg/mL | 12/12 |  |  |  |  |  |  |  |
| O=C1CCC(N2Cc3ccccc3C2=O)C(=O)N1CSC(=S)NC1CCCCC1 (stereo not drawn) [Compound 52] | + |  |  | NS |  |  |  |  |  | 100 µg/mL | 6/7 | 100 µg/mL | 7/21 | + | + | NS | NS |  |  |  |
| O=C1CCC(N2Cc3ccccc3C2=O)C(=O)N1CSC(=S)N1CCCCC1 (stereo not drawn) [Compound 53] | NS |  |  | + |  |  |  |  |  | 10 µg/mL | 9/14 | 10 µg/mL | 13/19 | + | + | − | NS |  |  |  |
| O=C1CCC(N2C(=O)c3cccnc3C2=O)C(=O)N1 (stereo not drawn) [Compound 57] | NS |  |  | NS |  |  | + |  |  | 8.5 µg/mL | 8/12 | 17 µg/mL | 8/15 | NS | NS | NS | NS | NS | + |  |
| O=C1CCC(N2C(=O)c3ccncc3C2=O)C(=O)N1 (stereo not drawn) [Compound 58] | NS |  |  | NS |  |  | + |  |  | 10 µg/mL | 33/33 | 5 µg/mL | 7/16 | NS | NS | NS | NS | + | + | most effective analog at inhibiting the inflammatory response |
| O=C1c2ccccc2C(=O)N1c1nc2ccc(C(F)(F)F)cc2s1 [Compound 59, 2-(6-Trifluoromethyl-benzothiazol-2-yl)-1H-isoindole-1,3(2H)-dione] | + |  |  | NS |  |  | + |  |  | 10 µg/mL | 21/32 | 100 µg/mL | 6/11 | NS | NS | NS | NS | + | NS |  |
| O=C1c2cccc(O)c2C(=O)N1c1nc2ccc(C(F)(F)F)cc2s1 [Compound 61] | + |  |  | − |  |  | + |  |  | 100 µg/mL | 3/15 | 1 µg/mL | 9/20 | NS | NS | NS | NS | NS | + |  |
| O=C1c2ccccc2CN1c1nc2ccc(C(F)(F)F)cc2s1 [Compound 62] | NS |  |  | NS |  |  | + |  |  | 10 µg/mL | 18/20 | 10 µg/mL | 6/20 | NS | NS | NS | NS | NS | NS |  |

Reference: patent publication US11440880B2, “Thalidomide analogs and methods of use” (The USA, as represented by the Secretary, Department of …, priority 2015, dated 2022)
